Measured values: patent publication US20240237649A1, “CRYSTALLINE FORMS OF 5-FLUORO-4-IMINO-3-METHYL-1-TOSYL-3,4-DIHYDROPYRIMIDIN-2-ONE, AND MIXTURES, COMPOSITIONS AND METHODS OF USE THEREOF” (Adama Makhteshim Ltd., priority 2021, published 2024)

Assay: Chemical stability: concentration / degradation of compound of Formula I in compositions on storage
[1] = SC composition at pH 4, Table 12

Procedure: The amount of degradation permitted before the degradation is considered to be significant depends on the concentration of the active ingredients in the composition.
The physical and chemical stability of composition of Example 5 was tested under various conditions including CIPAC conditions.

Structure (SMILES): Cc1ccc(S(=O)(=O)n2cc(F)c(=N)n(C)c2=O)cc1 [Hydrate I (45% Hydrate, and 55% Form I Polymorph)] [5-fluoro-4-imino-3-methyl-1-tosyl-3,4-dihydropyrimidin-2(1H)-one]
- % Water Content (total water in the composition, including free water and water in the hydrate): 0.29%

Structure (SMILES): Cc1ccc(S(=O)(=O)n2cc(F)c(=N)n(C)c2=O)cc1 [Form III, 5-fluoro-4-imino-3-methyl-1-tosyl-3,4-dihydropyrimidin-2(1H)-one]
- stability in oil dispersion (OD) composition compared with suspension concentrate (SC) composition: more stable

Structure (SMILES): Cc1ccc(S(=O)(=O)n2cc(F)c(=N)n(C)c2=O)cc1 [compound of Formula I, 5-fluoro-4-imino-3-methyl-1-tosyl-3,4-dihydropyrimidin-2(1H)-one]
- amount of the compound of Formula I in the composition, after decrease [1]: 31.1 % by weight based on the total weight of the composition
- amount of the compound of Formula I in the composition, before decrease [1]: 44.4 % by weight based on the total weight of the composition
